The values below come from patent US20150328329A1, “LIGANDS THAT TARGET HCV-E2 BINDING SITES ON CD81 AND THERAPEUTIC METHODS USING THEM” (American University of Cairo, priority 2012, published 2015).

The target in one experiment is T1, recombinant CD81-LEL (Homo sapiens, UniProt P60033).
T1 construct: the large extracellular loop of CD81 (CD81-LEL); GST; His; Shoshana Levy Lab, Stanford (gift)
T1 sequence (P60033 113-201 limits assumed): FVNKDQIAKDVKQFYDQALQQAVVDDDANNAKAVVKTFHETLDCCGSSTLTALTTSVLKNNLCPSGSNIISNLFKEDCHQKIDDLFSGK
Kind of experiment: SPR (Biacore T100) binding of additional ligands to immobilized CD81-LEL (Example 6). The following applies: Table E, ligand 200 uM in PBS-1% DMSO. On the procedure:
SPR analysis was performed using a Biacore T100 workstation (GE Healthcare, NJ, USA). A recombinant form of the CD81-LEL protein with a GST-tag (Shoshana Levy Lab-Stanford) was used to determine the binding affinities of the ligands in the above list. 10 uM CD81-LEL-His diluted into 10 mM sodium acetate buffer pH 4.5 was immobilized for […] at a flow speed of 5 ul/min onto a CM5 sensor chip using amine coupling (EDC-NHS). Approximately 20,000 RU of protein were immobilized on the chip. The ligands were prepared as 200 uM solutions in PBS-1% DMSO (the running buffer) and they were introduced to the protein using a pre-programmed 3 min association and 1 min dissociation interval. Ligands that bind have a positive RU (response units) number and the strength of binding to the CD81 protein is related to the magnitude of the RU number; the larger the number the more binding.
Background: In SPR one partner is held on a chip, and binding of the other changes the refractive index at the surface.

For experiment [1], the target named is T2, native CD81 on Raji cells (Homo sapiens, UniProt P60033).
T2 construct: endogenous in cells; host or cells: Raji (human B cell line)
T2 sequence (P60033 1-236): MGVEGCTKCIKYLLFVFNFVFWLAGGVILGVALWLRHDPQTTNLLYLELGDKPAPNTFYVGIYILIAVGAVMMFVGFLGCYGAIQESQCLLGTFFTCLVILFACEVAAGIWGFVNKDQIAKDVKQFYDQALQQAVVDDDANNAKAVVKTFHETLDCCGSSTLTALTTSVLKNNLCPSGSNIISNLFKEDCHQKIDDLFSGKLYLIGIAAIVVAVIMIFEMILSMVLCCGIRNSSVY
Kind of experiment: Competition assay: inhibition of FITC-labeled JS-81 anti-CD81 antibody binding to native CD81 on live Raji cells (flow cytometry). The experiment is classed as cell-based. The source says:
A subset of these ligands and some of those listed in the patent have been tested to identify those ligands that bind to the correct region of the CD81 protein and for binding to native CD81 on living cells (a Raji cell line). This assay tests three concentrations of the ligand to determine if the ligand is capable of inhibiting the binding of an antibody called JS-81. This antibody is known to bind to the region of the CD81 protein we have targeted. If the ligand decreases JS-81 binding as you increase the concentration of the ligand, it is 1) binding to native CD81 on the Raji cells and 2) it is binding to the correct region of the protein.
For antibody neutralization assay Raji cells were used, a human B cell line that expressed high amounts of CD81 on the surface (data not shown). Cells were grown in RPMI medium (10% FCS, 1% penicillin/streptomycin, 1% L-glutamine, 1% non-essential amino acids, 1% sodium pyruvate, pH 7.4, at 37° C. with 5% CO2). 2×10^5 cells were incubated with or without different concentrations (50 μM, 100 μM, 400 μM and 1 mM) of indicated inhibitor for 20 min at room temperature, subsequently 1 ul (16 ng/μl) of FITC-labeled anti CD81 antibody (BD Pharmingen, 551108) was added to the cells and incubated for 20 min (antibody titration was performed to obtain a working dilution range, data not shown). Cells were washed and analyzed by flow cytometry using fluorescence-activated cell sorting (FACS) (BD FACSCalibur, software: Cell Quest Pro). Mean Fluorescence Intensity MFI was calculated using Flowjo software (TreesStar, www.flowjo.com).
Background: A flow cytometer gives signals particle by particle.

In the case of `CC1CCCC(CC(=O)O)(CC(=O)O)C1` (stereo not shown) [Ligand 3001], the “Binding (RU)” value at recombinant CD81-LEL was 4.6 RU. As to `Cc1ccc(NC(=S)NC(=O)c2ccccc2)cc1NC(=S)NC(=O)c1ccccc1` [Ligand 5856], the “Binding (RU)” value on recombinant CD81-LEL came out at 2.7 RU.

Regarding `CCC(C)(C)c1ccc(Oc2cccc(C(=O)O)c2)cc1` [Ligand 7962], the “Binding (RU)” value on recombinant CD81-LEL came to 14.7 RU. Besides, the “Inhibition of JS-81 Binding (%)” value worked out at 0% in experiment [1] (50 μM ligand), 0% in experiment [1] (100 μM ligand) and 19% in experiment [1] (400 μM ligand). Consider `CC(C)(C)c1ccc(OCC(=O)O)cc1` [Ligand 8481], for which the “Binding (RU)” value at recombinant CD81-LEL worked out at 1.8 RU. For `Cn1ncc2c(Nc3ccc(Br)cc3)nc(Nc3ccc(Br)cc3)nc21` [Ligand 11667], the “Binding (RU)” value on recombinant CD81-LEL was 9.6 RU. Regarding `CCNc1ccccc1C(=O)O` [Ligand 16162], the “Binding (RU)” value at recombinant CD81-LEL is reported as 5.1 RU. With `CC(C)Oc1ccc(C(=O)O)cc1` [Ligand 16646], the “Binding (RU)” value at recombinant CD81-LEL worked out at 4.9 RU. The same measure, in the same setting: for `N=C(N)Nc1ccc(NC(=N)N)cc1` [Ligand 20586] the value was 17.4 RU. For the compound `O=C(O)c1ccc(N2CCCCC2)cc1O` [Ligand 23895], at recombinant CD81-LEL, the “Binding (RU)” value is given as 10 RU. The “Inhibition of JS-81 Binding (%)” value in experiment [1] (50 μM ligand) is 0%; in experiment [1] (100 μM ligand) it was 0%; in experiment [1] (400 μM ligand) it was 17%.

In the case of `Cc1ccc(-c2cc(C(=O)O)c3ccccc3n2)c(C)c1` [Ligand 25678], the “Binding (RU)” value on recombinant CD81-LEL worked out at 11.1 RU. For the same compound, the “Inhibition of JS-81 Binding (%)” value in experiment [1] (50 μM ligand) is on record as 0%; in experiment [1] (100 μM ligand) it was 4%; in experiment [1] (400 μM ligand), 19%.

Consider `O=C(O)c1[nH]c(=O)[nH]c(=O)c1F` [Ligand 31712], for which, on recombinant CD81-LEL, the “Binding (RU)” value is 4.1 RU.

Regarding `O=C(O)/C(=C/c1ccccc1)c1ccccc1` [Ligand 40614], at recombinant CD81-LEL, the “Binding (RU)” value was 50.8 RU. The results for the “Inhibition of JS-81 Binding (%)” value in experiment [1] (50 μM ligand), in experiment [1] (100 μM ligand) and in experiment [1] (400 μM ligand) were 0%, 8% and 26%, respectively. In the case of `C=CCc1ccccc1OCC(=O)O` [Ligand 60239], the “Binding (RU)” value at recombinant CD81-LEL is recorded as 5.8 RU. Same read-out and setting: the figure for `CC(OC(=O)Nc1cccc(Cl)c1)C(=O)O` (stereo not shown) [Ligand 73170] is 4.3 RU. Take `CNC1(C(N)=O)CCNCC1` [Ligand 75846]: the “Inhibition of JS-81 Binding (%)” value is on record as 0% in experiment [1] (50 μM ligand), 0% in experiment [1] (100 μM ligand) and 52% in experiment [1] (400 μM ligand). Turning to `O=C(O)Cn1ccc2ccccc21` [Ligand 75866], the “Binding (RU)” value on recombinant CD81-LEL is reported as 18.9 RU. Further, the “Inhibition of JS-81 Binding (%)” value is 0% in experiment [1] (50 μM ligand), 1% in experiment [1] (100 μM ligand) and 31% in experiment [1] (400 μM ligand). As to `COc1cccc(C2Nc3cccc4cccc(c34)N2)c1` [Ligand 76823], the “Binding (RU)” value at recombinant CD81-LEL was found to be 5.4 RU. Regarding `c1cncc(C2CCCCN2)c1` (stereo not shown) [Ligand 87504], the “Binding (RU)” value at recombinant CD81-LEL turned out to be 57.9 RU. In addition, the “Inhibition of JS-81 Binding (%)” value in experiment [1] (50 μM ligand) is 0%; in experiment [1] (100 μM ligand) it was 6%; in experiment [1] (400 μM ligand), 20%.

Turning to `O=c1[nH]c2ccccc2n1C1=CCNCC1` [Ligand 88883], the “Binding (RU)” value on recombinant CD81-LEL came to 5.4 RU. Same read-out and setting: the figure for `O=C(O)CCc1cccnc1` [Ligand 89720] is 9.2 RU. In the case of `Cc1cc(C)c(N)c(C(=O)O)c1` [Ligand 90444], the “Binding (RU)” value at recombinant CD81-LEL came out at 13.1 RU. Besides, the “Inhibition of JS-81 Binding (%)” value in experiment [1] (50 μM ligand) was 0%; in experiment [1] (100 μM ligand), 0%; in experiment [1] (400 μM ligand), 24%.

With `O=C(O)C(Cc1ccccc1-c1ccccc1)C(=O)O` [Ligand 94914], the “Binding (RU)” value at recombinant CD81-LEL came out at 7.2 RU. For `CCCCNCC1CCCO1` (stereo not shown) [Ligand 97538], the “Binding (RU)” value at recombinant CD81-LEL came out at 4.2 RU. For `O=C(O)c1cc(O)ccc1/N=N/c1ccccc1` [Ligand 106863], the “Binding (RU)” value at recombinant CD81-LEL is given as 11.6 RU. In addition, the “Inhibition of JS-81 Binding (%)” value in experiment [1] (50 μM ligand) is 0%; in experiment [1] (100 μM ligand) it was 0%; in experiment [1] (400 μM ligand), 19%. In the case of `NC(=O)NC(=O)c1nccnc1C(=O)O` [Ligand 117922], the “Binding (RU)” value on recombinant CD81-LEL came to 10.2 RU. Besides, the “Inhibition of JS-81 Binding (%)” value in experiment [1] (50 μM ligand) stood at 0%; in experiment [1] (100 μM ligand), 12%; in experiment [1] (400 μM ligand) it was 26%. For `O=C(O)c1ccc(OCCOc2ccccc2)cc1` [Ligand 120631], the “Binding (RU)” value at recombinant CD81-LEL is recorded as 8.3 RU. `NS(=O)(=O)c1ccc(/N=N/c2c(O)c(C(=O)O)cc3ccccc23)cc1` [Ligand 134137]: the “Binding (RU)” value on recombinant CD81-LEL is reported as 10 RU. Moreover, the “Inhibition of JS-81 Binding (%)” value in experiment [1] (50 μM ligand) stood at 0%; in experiment [1] (100 μM ligand), 6%; in experiment [1] (400 μM ligand), 26%.

For the compound `CCNc1nc(Cl)nc(-c2cn(-c3ccccc3)c3ccccc23)n1` [Ligand 142446], the “Binding (RU)” value on recombinant CD81-LEL is reported as 2.5 RU. On to `O=C(O)/C=C\C(=O)Nc1cccc2cccnc12` [Ligand 144958], for which, on recombinant CD81-LEL, the “Binding (RU)” value amounted to 4.1 RU. For the same compound, the “Inhibition of JS-81 Binding (%)” value in experiment [1] (50 μM ligand) is listed as 0%; in experiment [1] (100 μM ligand) it was 54%; in experiment [1] (400 μM ligand), 12%. With `CC1=CC(=O)CC(C)(C)C1(O)/C=C/C(C)=C/C(=O)O` (stereo not shown) [Ligand 148832], the “Binding (RU)” value at recombinant CD81-LEL is 2.9 RU. The same measure, in the same setting: for `COc1cc(/N=N/c2ccccc2C(=O)O)ccc1O` [Ligand 153172] the value was 2.6 RU. Take `Cc1ccc(C)c(C(=O)CCC(=O)O)c1` [Ligand 215276]: the “Binding (RU)” value at recombinant CD81-LEL is given as 7.4 RU.

Take `Cc1cc(N2CCN(C)CC2)n2nc(-c3ccc(Cl)cc3)nc2n1` [Ligand 252359]: on recombinant CD81-LEL, the “Binding (RU)” value was determined as 9.3 RU.

With `CCOc1cccc2cc(C(N)=O)c(=N)oc12` [Ligand 263636], the “Binding (RU)” value on recombinant CD81-LEL is 3.4 RU.

Regarding `O=C(O)c1ccccc1NCc1ccco1` [Ligand 331931], the “Binding (RU)” value at recombinant CD81-LEL amounted to 5.9 RU. Turning to `N=C(N)NC(=S)Nc1ccc(Cl)cc1` [Ligand 403374], the “Binding (RU)” value on recombinant CD81-LEL worked out at 12.6 RU. Same read-out and setting: for `CCCCCCC(C)OC(=O)c1ccccc1C(=O)O` (stereo not shown) [Ligand 524615] the value was 4.1 RU. With `O=C(Nc1ccc(Br)c2ccccc12)c1ccc2ccccc2c1O` [Ligand 601359], the “Binding (RU)” value at recombinant CD81-LEL was 4.1 RU. The inhibition is the change of the read-out against control, counted positive when it falls. A low value points to a weak effect. The compound `NC(=O)c1ccc2c(c1)S(=O)(=O)c1ccccc1C2=O` [Ligand 689002, 9-Oxo-9H-thioxanthene-3-carboxamide 10,10-dioxide] had an inhibition at 50 µM in experiment [1] (50 μM ligand) of 0%. The compound also displayed an inhibition at 100 µM in experiment [1] (100 μM ligand) of 0%. In experiment [1] (400 μM ligand), this compound displayed an inhibition at 400 µM of 14%.
